Consider one substance from US9115340B2, “Microfluidic continuous flow device” (AGENCY FOR SCIENCE TECHNOLOGY & RESEARCH, priority 2008, dated 2015).

For test [1], the system named is primary rat hepatocytes. The test is described as follows: Albumin secretion of primary rat hepatocytes cultured in the microfluidic channel (rat albumin ELISA). It is filed as cell-based. The source says: 200 pg/ml of TGF-β1 was supplemented into cultivation medium (▪). In another set of experiment, TGF-β1 was pre-loaded into gelatin microspheres and was then controlled released to the hepatocytes at a concentration of 217.5 pg/ml ( ?; control release). In the control experiment, there is no TGF-β1 supplemented in cultivation medium (□).
Albumin production was quantified with a rat albumin ELISA quantification kit (Bethyl Laboratories Inc, USA) in the collected cultivation medium everyday. In the presence of TGF-β1, the level of albumin secretion is enhanced. From day 5 onwards, when TGF-β1 is controlled released to the hepatocytes, the level of albumin secretion can be well-sustained.
(In an ELISA, binding on a coated surface is turned into a signal by an enzyme label.)

Test [2] deals with primary rat hepatocytes. The test is described as follows: UGT activity: 4-MUG production of primary rat hepatocytes in the microfluidic channel (CE-LIF). It is filed as cell-based. The following applies: from day 3 onwards; TGF-β1 controlled released from gelatin microspheres at 217.5 pg/ml; compared to medium-supplemented and control groups. As to the method:
The enzyme has the ability to metabolize the substrate 4-methylumbelliferone (MU) into 4-methylumbelliferone-glucuronide (MUG). Thus, the enzyme activity is indicated by the amount of 4-MUG produced by the cells.
Capillary electrophoresis (CE) with fluorimetric detection was used for the simultaneous detection of 4-MU and 4-MUG. Separation is carried out on an untreated fused silica capillary with fluorimetric detection using an excitation wavelength of 320 nm with a 375 nm cut off emission filter. […]
Similar to the UDP-glucuronosyltransferase (UGT) assay described above, UDP-glucuronosyltransferase (UGT) activity of hepatocytes cultured in the compartment of a channel of a microfluidic continuous flow device was determined by infusing 100 μM of 4-methylumbelliferone (4-MU) (Sigma, Singapore) for 4 h at 200 μl/h into the channel. The perfusate (800 μl) was collected and the metabolic product, 4-methylumbelliferone-glucuronide (4-MUG), was analyzed using capillary electrophoresis with laser induced fluorescence (CE-LIF) (Toh, Y. C. et al., 2008, Analyst, vol. 132, no. 3, p. 326) detection (Prince Technologies B.V., Netherlands) at an excitation wavelength of 325 nm.

Turning to “TGF-β1: growth factor supplemented into cultivation medium or pre-loaded into gelatin microspheres and controlled released to hepatocytes”, in the test with primary rat hepatocytes [1] (from day 5 onwards, 200 pg/ml TGF-β1 supplemented into cultivation medium), the albumin secretion result was “decreases”. The “level of albumin secretion” value in the test on primary rat hepatocytes [1] (from day 5 onwards, TGF-β1 controlled released from gelatin microspheres at 217.5 pg/ml) was “well-sustained”; in the test on primary rat hepatocytes [1] (in the presence of TGF-β1 (200 pg/ml in medium or 217.5 pg/ml controlled release) versus no TGF-β1), “enhanced”. In addition, the “level of 4-MUG production” value in the test with primary rat hepatocytes [2] was “greatly enhanced”.
